# “Also recorded” adds a separate entry of the source.
# Molecular target: T1, FAAH activity in brain (Mus musculus, UniProt O08914)
# T1 sequence (O08914 1-579): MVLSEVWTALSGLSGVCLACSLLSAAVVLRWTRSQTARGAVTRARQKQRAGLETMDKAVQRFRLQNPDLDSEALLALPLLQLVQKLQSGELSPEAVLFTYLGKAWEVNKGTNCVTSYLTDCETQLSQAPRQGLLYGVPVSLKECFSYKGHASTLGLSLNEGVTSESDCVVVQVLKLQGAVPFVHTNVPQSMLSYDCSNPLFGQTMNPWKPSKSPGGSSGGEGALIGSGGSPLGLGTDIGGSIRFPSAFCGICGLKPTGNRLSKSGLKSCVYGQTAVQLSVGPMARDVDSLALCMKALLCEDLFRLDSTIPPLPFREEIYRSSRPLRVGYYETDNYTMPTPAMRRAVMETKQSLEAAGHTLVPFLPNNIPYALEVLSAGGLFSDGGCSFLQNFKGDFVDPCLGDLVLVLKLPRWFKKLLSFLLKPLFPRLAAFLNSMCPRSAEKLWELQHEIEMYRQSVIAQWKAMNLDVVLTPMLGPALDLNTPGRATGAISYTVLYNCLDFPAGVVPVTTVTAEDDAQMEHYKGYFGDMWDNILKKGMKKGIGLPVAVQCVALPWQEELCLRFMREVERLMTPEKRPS
# Experiment: Ex vivo FAAH inhibition in brain after systemic administration
# Set-up: species or system Swiss Webster mice
# Settings: s.c. doses up to 40 or 75 mg/kg, 1 h after injection
row,SMILES,Access to the brain in dose-exploration study (brain FAAH inhibition)
1,"NC(=O)c1cccc(-c2cc(OC(=O)NC3CCCCC3)ccc2C(=O)O)c1 [compound 29, Cyclohexylcarbamic Acid 3’-Carbamoyl-6-carboxybiphenyl-3-yl Ester]","failed to enter the brain even at the highest dose tested; also recorded: did not enter the brain, even at the highest dosage tested"
2,"N.NC(=O)c1cccc(-c2cc(OC(=O)NC3CCCCC3)ccc2OS(=O)(=O)O)c1 [compound 30, Ammonium Cyclohexylcarbamic Acid 3’-Carbamoyl-6-sulfatebiphenyl-3-yl Ester]","did not enter the brain, even at the highest dosage tested"
3,"CC(=O)Nc1cccc(-c2cc(OC(=O)NC3CCCCC3)ccc2O)c1 [7c, Cyclohexylcarbamic Acid 3’-Acetamido-6-hydroxybiphenyl-3-yl Ester]","significantly higher brain penetration relative to 3, 7d and 7e at all doses tested"

# Reference: publication PMC4062305 (Journal of medicinal chemistry, 2013)
